According to patent publication US20260125378A2, “Heterocyclic Compounds” (BeOne Medicines I GmbH, priority 2023, published 2026):

Experiments:
[1] = biological target: T1, Full length DGKζ (in-house protein M1-V929) (Homo sapiens, UniProt Q13574); assay: Biochemical DGK IC50 assay (ADP-Glo, lipid micelle substrate), DGKζ; conditions: 1 hour preincubation, 1 hour reaction, room temperature
T1 construct: His (N); TEV site (N); made in house; host or cells: Sf9 insect cells (Bac-to-Bac baculovirus)
T1 sequence (Q13574 1-929 isoform Q13574-4): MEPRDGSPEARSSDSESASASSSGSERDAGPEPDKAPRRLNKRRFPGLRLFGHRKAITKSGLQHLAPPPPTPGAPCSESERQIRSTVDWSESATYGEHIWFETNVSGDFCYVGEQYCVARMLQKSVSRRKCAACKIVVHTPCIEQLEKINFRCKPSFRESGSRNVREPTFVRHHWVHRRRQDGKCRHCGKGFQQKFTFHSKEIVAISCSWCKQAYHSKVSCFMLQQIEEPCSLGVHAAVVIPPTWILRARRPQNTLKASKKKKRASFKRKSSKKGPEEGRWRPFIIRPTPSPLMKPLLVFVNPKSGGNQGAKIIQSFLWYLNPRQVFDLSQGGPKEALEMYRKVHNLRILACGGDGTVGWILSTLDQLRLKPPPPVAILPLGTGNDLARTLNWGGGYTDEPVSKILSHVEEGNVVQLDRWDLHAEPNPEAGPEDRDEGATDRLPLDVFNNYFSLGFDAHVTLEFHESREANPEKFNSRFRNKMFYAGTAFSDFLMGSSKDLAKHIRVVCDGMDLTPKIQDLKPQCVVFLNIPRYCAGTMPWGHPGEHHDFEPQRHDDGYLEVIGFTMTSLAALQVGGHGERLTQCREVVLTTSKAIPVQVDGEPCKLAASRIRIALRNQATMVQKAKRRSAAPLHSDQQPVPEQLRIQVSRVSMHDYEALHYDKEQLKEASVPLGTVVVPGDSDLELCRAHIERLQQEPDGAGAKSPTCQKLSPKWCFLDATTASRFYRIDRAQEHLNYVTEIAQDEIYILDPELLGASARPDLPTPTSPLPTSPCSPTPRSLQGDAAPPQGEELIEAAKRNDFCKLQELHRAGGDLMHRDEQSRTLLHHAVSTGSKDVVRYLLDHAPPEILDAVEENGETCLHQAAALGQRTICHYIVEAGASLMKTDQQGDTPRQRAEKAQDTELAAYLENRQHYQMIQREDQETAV
How it was run: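 Enzyme: full-length human DGKζ M1-V929, produced in baculovirus-infected Sf9 cells; substrate DAG/PS micelles. Buffer 50 mM HEPES, 10 mM MgCl2, 0.01 mM CaCl2, 0.1 mM Na3VO4.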

[2] = biological target: T2, Full length DGKα (D21-10BG, SignalChem) (Homo sapiens, UniProt P23743); assay: Biochemical DGK IC50 assay (ADP-Glo, lipid micelle substrate), DGKα; conditions: 1 hour preincubation, 1 hour reaction, room temperature
T2 construct: Full length DGKα (D21-10BG, SignalChem); purchased SignalChem D21-10BG
T2 sequence (P23743 whole entry): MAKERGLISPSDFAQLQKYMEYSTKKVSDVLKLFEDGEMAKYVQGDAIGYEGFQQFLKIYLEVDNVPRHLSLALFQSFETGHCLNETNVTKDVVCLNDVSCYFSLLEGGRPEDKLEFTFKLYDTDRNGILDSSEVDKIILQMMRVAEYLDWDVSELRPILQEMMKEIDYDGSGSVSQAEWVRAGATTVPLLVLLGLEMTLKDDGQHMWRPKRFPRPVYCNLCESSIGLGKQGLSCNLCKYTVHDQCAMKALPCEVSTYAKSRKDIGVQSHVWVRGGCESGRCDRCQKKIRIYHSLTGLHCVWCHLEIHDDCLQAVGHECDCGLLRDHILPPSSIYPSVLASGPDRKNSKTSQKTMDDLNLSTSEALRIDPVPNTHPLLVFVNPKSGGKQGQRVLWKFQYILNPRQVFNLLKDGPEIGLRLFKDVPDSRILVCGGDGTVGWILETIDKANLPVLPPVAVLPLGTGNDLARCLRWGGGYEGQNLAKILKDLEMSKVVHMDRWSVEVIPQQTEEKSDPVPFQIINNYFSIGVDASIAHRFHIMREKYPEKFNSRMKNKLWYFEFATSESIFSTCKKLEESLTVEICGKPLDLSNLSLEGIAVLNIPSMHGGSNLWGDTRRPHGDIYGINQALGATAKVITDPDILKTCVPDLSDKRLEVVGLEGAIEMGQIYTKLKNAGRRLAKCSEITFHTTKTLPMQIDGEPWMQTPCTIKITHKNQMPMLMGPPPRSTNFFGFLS
How it was run: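 ADP-Glo luminescence quantified ADP produced after a 1 h room-temperature reaction of full-length DGKα on DAG/PS micelles, in HEPES buffer containing MgCl2, CaCl2, vanadate, BSA and Tween-20. IC50 values derive from activity inhibition over a compound concentration series.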

Row | Structure (SMILES) | IC50 [1] [nM] | IC50 [2] [nM]
1 | CCn1c(CC#N)nc2c(N3C[C@@H](C)N(C(C)c4cc5c(cc4F)OCC(C)(C)O5)C[C@@H]3C)nc(=O)n(C)c21 (single isomer, unassigned) [Compound A157a] | 28 | 11600
2 | CC(c1ccc2c(c1)OC(C)(C)CO2)N1C[C@H](C)N(c2nc(=O)n(C)c3c2nc(CC#N)n3C)C[C@H]1C (single isomer, unassigned) [Compound A59b] | 2.3 | 14200
3 | CCn1c(CC#N)nc2c(N3C[C@@H](C)N(C(C)c4cccc(N5CCOCC5)c4)C[C@@H]3C)nc(=O)n(C)c21 (stereo partly drawn) [Compound A141, 2-(6-((2S,5R)-2,5-dimethyl-4-(1-(3-morpholinophenyl)ethyl)piperazin-1-yl)-9-ethyl-3-methyl-2-oxo-3,9-dihydro-2H-purin-8-yl)acetonitrile] | 1290 | > 150000
4 | CCn1c(CC#N)nc2c(N3C[C@@H](C)N(C(C)c4cccc(C(F)(F)F)c4)C[C@@H]3C)nc(=O)n(C)c21 (single isomer, unassigned) [Compound A42a] | 24 | 78700
5 | COc1cc(F)ccc1C(C)N1C[C@H](C)N(c2nc(=O)n(C)c3c2nc(CC#N)n3C)C[C@H]1C (single isomer, unassigned) [Compound A24a] | 975 | > 10000
6 | CCn1c(CC#N)nc2c(N3C[C@@H](C)N(C(C)c4ccc5c(c4)OC(C)(C)O5)C[C@@H]3C)nc(=O)n(C)c21 (mixture of isomers) [Compound A85, 2-(6-((2S,5R)-4-(1-(2,2-dimethylbenzo[d][1,3]dioxol-5-yl)ethyl)-2,5-dimethylpiperazin-1-yl)-9-ethyl-3-methyl-2-oxo-3,9-dihydro-2H-purin-8-yl)acetonitrile] | 25 | 103000
7 | CC[C@@H]1CN(c2nc(=O)n(C)c3c2nc(CC#N)n3CC)[C@@H](C)CN1C(C)c1ccc2c(n1)OC(C)(C)CO2 (mixture of isomers) [Compound A158, 2-(6-((2S,5R)-4-(1-(3,3-dimethyl-2,3-dihydro-[1,4]dioxino[2,3-b]pyridin-6-yl)ethyl)-5-ethyl-2-methylpiperazin-1-yl)-9-ethyl-3-methyl-2-oxo-3,9-dihydro-2H-purin-8-yl)acetonitrile] | 33 | 122000
8 | CCn1c(CC#N)nc2c(N3C[C@@H](C)N(C(C)c4ccc5c(c4)OC(F)(F)CO5)C[C@@H]3C)nc(=O)n(C)c21 (mixture of isomers) [Compound A80, 2-(6-((2S,5R)-4-(1-(3,3-difluoro-2,3-dihydrobenzo[b][1,4]dioxin-6-yl)ethyl)-2,5-dimethylpiperazin-1-yl)-9-ethyl-3-methyl-2-oxo-3,9-dihydro-2H-purin-8-yl)acetonitrile] | 31 | 95000
9 | CC(c1cccnc1C(F)(F)F)N1C[C@H](C)N(c2cc(=O)n(C)c3c2nc(CC#N)n3C)C[C@H]1C (single isomer, unassigned) [Compound A7b] | 35 | 97600
10 | CCn1c(CC#N)nc2c(N3C[C@@H](C)N(C(C)c4csc(C(F)(F)F)n4)C[C@@H]3C)nc(=O)n(C)c21 (stereo partly drawn) [Compound A104, 2-(6-((2S,5R)-2,5-dimethyl-4-(1-(2-(trifluoromethyl)thiazol-4-yl)ethyl)piperazin-1-yl)-9-ethyl-3-methyl-2-oxo-3,9-dihydro-2H-purin-8-yl)acetonitrile] | 839 | > 150000
11 | CCn1c(CC#N)nc2c(N3C[C@@H](C)N(C(C)c4ccc5c(c4)C(C)(C)N(C)C5=O)C[C@@H]3C)nc(=O)n(C)c21 (stereo partly drawn) [Compound A84, 2-(6-((2S,5R)-2,5-dimethyl-4-(1-(2,3,3-trimethyl-1-oxoisoindolin-5-yl)ethyl)piperazin-1-yl)-9-ethyl-3-methyl-2-oxo-3,9-dihydro-2H-purin-8-yl)acetonitrile] | 232 | > 150000
12 | [2H]C([2H])([2H])n1c(CC#N)nc2c(N3C[C@@H](C)N(C(C)c4ccc(F)cc4C(F)(F)F)C[C@@H]3C)nc(=O)n(C)c21 (stereo partly drawn) [Compound A37, 2-(6-((2S,5R)-4-(1-(4-fluoro-2-(trifluoromethyl)phenyl)ethyl)-2,5-dimethylpiperazin-1-yl)-3-methyl-9-(methyl-d3)-2-oxo-3,9-dihydro-2H-purin-8-yl)acetonitrile] | 18 | 128000
13 | CCn1c(CC#N)nc2c(N3C[C@@H](C)N(C(C)c4c(F)cc5c(c4F)OC(C)(C)O5)C[C@@H]3C)nc(=O)n(C)c21 (single isomer, unassigned) [Compound A176a] | 40 | 13100
14 | CCn1c(CC#N)nc2c(N3C[C@@H](C)N(C(C)c4c(F)cc5c(c4F)OC(C)(C)O5)C[C@@H]3C)nc(=O)n(C)c21 (single isomer, unassigned) [Compound A176b] | 7 | 7190
15 | CC#CCc1nc2c(N3C[C@@H](CC)N(C(C)c4ccc(C(F)(F)F)cc4)C[C@@H]3CC)nc(=O)n(C)c2n1C (stereo partly drawn) [Compound A152, 8-(but-2-yn-1-yl)-6-((2S,5R)-2,5-diethyl-4-(1-(4-(trifluoromethyl)phenyl)ethyl)piperazin-1-yl)-3,9-dimethyl-3,9-dihydro-2H-purin-2-one] | 707 | 2690
16 | CC[C@H]1CN(C(C)c2ccc(F)cc2C(F)(F)F)[C@H](CC)CN1c1nc(=O)n(C)c2c1nc(CC#N)n2C (single isomer, unassigned) [Compound A34a] | 392 | > 10000
17 | CCn1c(CC#N)nc2c(N3C[C@@H](C)N(C(C)c4ccc5ccc(C)nc5c4)C[C@@H]3C)nc(=O)n(C)c21 (stereo partly drawn) [Compound A90, 2-(6-((2S,5R)-2,5-dimethyl-4-(1-(2-methylquinolin-7-yl)ethyl)piperazin-1-yl)-9-ethyl-3-methyl-2-oxo-3,9-dihydro-2H-purin-8-yl)acetonitrile] | 213 | > 150000
18 | CCn1c(CC#N)nc2c(N3C[C@@H](C)N(C(C)c4ccc5c(c4Cl)OC(C)(C)O5)C[C@@H]3C)nc(=O)n(C)c21 (single isomer, unassigned) [Compound A172b] | 8 | 116000
19 | CCn1c(CC#N)nc2c(N3C[C@@H](C)N(C(C)c4cnc5c(c4)OC(C)(C)CO5)C[C@@H]3C)nc(=O)n(C)c21 (stereo partly drawn) [Compound A76, 2-(6-((2S,5R)-4-(1-(2,2-dimethyl-2,3-dihydro-[1,4]dioxino[2,3-b]pyridin-7-yl)ethyl)-2,5-dimethylpiperazin-1-yl)-9-ethyl-3-methyl-2-oxo-3,9-dihydro-2H-purin-8-yl)acetonitrile] | 419 | > 150000
20 | CC[C@@H]1CN(c2nc(=O)n(C)c3c2nc(CC#N)n3CC)[C@@H](C)CN1C(C)c1ccc2c(c1)OC(C)(C)CO2 (stereo partly drawn) [Compound A65, 2-(6-((2S,5R)-4-(1-(3,3-dimethyl-2,3-dihydrobenzo[b][1,4]dioxin-6-yl)ethyl)-5-ethyl-2-methylpiperazin-1-yl)-9-ethyl-3-methyl-2-oxo-3,9-dihydro-2H-purin-8-yl)acetonitrile] | 2.3 | 24200
21 | CCn1c(CC#N)nc2c(N3C[C@@H](C)N(C(C)c4cccc(C(C)C)c4)C[C@@H]3C)nc(=O)n(C)c21 (single isomer, unassigned) [Compound A108a] | 7 | 65200
22 | CC(c1ccc(F)cc1C(F)(F)F)N1C[C@H](C)N(c2nc(=O)n(C)c3c2nc(CC#N)n3C)C[C@H]1C (single isomer, unassigned) [Compound A33a] | 804 | > 10000
23 | CCn1c(CC#N)nc2c(N3C[C@@H](C)N(C(C)c4ccc5c(c4)OC4(CCC4)O5)C[C@@H]3C)nc(=O)n(C)c21 (mixture of isomers) [Compound A169, 2-(6-((2S,5R)-2,5-dimethyl-4-(1-(spiro[benzo[d][1,3]dioxole-2,1′-cyclobutan]-5-yl)ethyl)piperazin-1-yl)-9-ethyl-3-methyl-2-oxo-3,9-dihydro-2H-purin-8-yl)acetonitrile] | 31 | 28500
24 | CCn1c(CC#N)nc2c(N3C[C@@H](C)N(C(C)c4ccnc5c4OCCC5(F)F)C[C@@H]3C)nc(=O)n(C)c21 (single isomer, unassigned) [Compound A103a] | 524 | > 150000
25 | COC[C@H]1CN(C(C)c2ccc3c(c2)OC(C)(C)CO3)[C@H](C)CN1c1nc(=O)n(C)c2c1nc(CC#N)n2C (single isomer, unassigned) [Compound A12b] | 57 | 27400
26 | CC(c1ccc(F)cc1C(F)F)N1C[C@H](C)N(c2nc(=O)n(C)c3c2nc(CC#N)n3C)C[C@H]1C (stereo partly drawn) [Compound A30, 2-(6-((2S,5R)-4-(1-(2-(difluoromethyl)-4-fluorophenyl)ethyl)-2,5-dimethylpiperazin-1-yl)-3,9-dimethyl-2-oxo-3,9-dihydro-2H-purin-8-yl)acetonitrile] | 14 | 44300
27 | CCn1c(CC#N)nc2c(N3C[C@@H](C)N(C(=O)c4ccc5c(n4)C(C)(C)CO5)C[C@@H]3C)nc(=O)n(C)c21 [Compound A182, 2-(6-((2S,5R)-4-(3,3-dimethyl-2,3-dihydrofuro[3,2-b]pyridine-5-carbonyl)-2,5-dimethylpiperazin-1-yl)-9-ethyl-3-methyl-2-oxo-3,9-dihydro-2H-purin-8-yl)acetonitrile] | 499 | > 150000
28 | CC(c1ccc2c(c1)OC(C)(C)CO2)N1C[C@H](C)N(c2nc(=O)n(C)c3c2nc(CC#N)n3C)C[C@H]1C (single isomer, unassigned) [Compound A59a] | 238 | 40300
